Experimental data reported in ChEMBL document CHEMBL1154517, “Antimitotic activity of two macrocyclic bis(bibenzyls), isoplagiochins A and B from the Liverwort Plagiochila fruticosa” (Bioorg Med Chem Lett, 2009).

Assay: Inhibition of tubulin polymerization

IC50 [µM] | Activity | SMILES
> 100 |  | Oc1ccc2c(c1)CCc1ccc(O)c(c1)-c1cc(ccc1O)CCc1cccc(c1)O2 [DIHYDROISOPLAGIOCHIN A]
50 |  | Oc1ccc2c(c1)CCc1ccc(O)c(c1)-c1cc(ccc1O)/C=C\c1cccc(c1)O2 [ISOPLAGIOCHIN A]
25 | Dose-dependent effect | Oc1ccc2cc1-c1cc(ccc1O)CCc1c(ccc(O)c1O)Oc1cccc(c1)/C=C\2 [ISOPLAGIOCHIN B]

Further lines, the compound ahead of its results:

SMILES | IC50 [µM] | Activity
Oc1ccc2cc1-c1cc(ccc1O)CCc1c(ccc(O)c1O)Oc1cccc(c1)CC2 [DIHYDROISOPLAGIOCHIN B] | > 100 | 
CC[C@]1(O)C[C@@H]2CN(CCc3c([nH]c4ccccc34)[C@@](C(=O)OC)(c3cc4c(cc3OC)N(C)[C@H]3[C@@](O)(C(=O)OC)[C@H](OC(C)=O)[C@]5(CC)C=CCN6CC[C@]43[C@@H]65)C2)C1 [VINBLASTINE] | 2 | 
